Data from publication PMC5361079 (Scientific Reports, 2017).
Where two headings read alike, the source gives them in different places.

How the values were obtained:
[1] = system: hiPSC-CMs; experiment: Intracellular prodrug, cleavage intermediate metabolite and NTP metabolite concentrations in hiPSC-CMs; type: in vitro ADME, human; conditions: for Intracellular Concentration, Cleavage Intermediate Metabolite / Intracellular Concentration, NTP Metabolite: BLOQ = below 17 pmol/million cells; for Effect of CatA inhibitor on sofosbuvir cleavage intermediate metabolite in hiPSC-CMs: hiPSC-CMs incubated with sofosbuvir
Description: Approximately 18 h before dosing, iCell hiPSC-CMs were switched to iCell cardiomyocyte maintenance media free of Penicillin/Streptomycin. […] […] After the corresponding treatment, cells were washed 2x with 200 μL of ice-cold magnesium- and calcium-free PBS buffer. Cells were then lysed in 100 μL of ice-cold lysis solution (70/30 methanol/water containing 20 mM EDTA and 20 mM EGTA, pH 8) by pipetting up and down 5 times. Plates were sealed and transferred on dry ice for determination of prodrug, cleavage intermediate metabolite, and NTP metabolite concentrations. Intracellular prodrug concentrations were measured using a reversed phase HPLC- high resolution mass spectrometry method. A dimethylhexylamine based ion-pairing HPLC-MS/MS method was used to measure intracellular cleavage intermediate metabolite and NTP metabolite concentrations. Intracellular concentrations (pmol/million cells) of prodrug, cleavage intermediate metabolite, and NTP metabolite were quantitated against calibration standards of the same analytes prepared from control iCell hiPSC-CM lysates.
For prodrug analyses, full scan high resolution mass spectrometry data was collected using an Exactive™ Orbitrap mass spectrometer with an electrospray source operated in the positive ion mode. Prodrug chromatograms were extracted from full scan high resolution mass spectrometry data for the masses indicated in Supplementary Table 5. Absence of endogenous interference(s) was verified by extracting the same ion from full scan high resolution mass spectrometry chromatograms of unspiked control cell lysates. For the cleavage intermediate metabolite and NTP metabolite an electrospray MS/MS method run on a SCIEX API 4000 mass spectrometer with turboV ionspray source was used in negative ion mode monitoring the transitions indicated in Supplementary Table 5. Absence of endogenous interference(s) was verified by monitoring of the same MRM transitions for unspiked control cell lysates. Measured intracellular prodrug, cleavage intermediate metabolite, and NTP metabolite concentrations (in pmol/million cells units) were tabulated (Table 2).

[2] = system: hiPSC-CM syncytia; experiment: Spontaneous FP rate and IMP amplitude/beating rate in hiPSC-CM syncytia (RTCA CardioECR / RTCA Cardio); type: cell-based, human; conditions: for Effect on FP rate / Effect on IMP amplitude: prodrug co-administered with 0.3 μM amiodarone, steady state (4 h), spontaneously beating hiPSC-CM syncytia
Description: hiPSC-CMs (iCells®) from Cellular Dynamics International (CDI, Madison, WI, USA) were seeded onto 48-well CardioECR or 96-well Cardio E-Plates® (ACEA Biosciences Inc., San Diego, CA, USA) coated with 10 μg/mL fibronectin (Sigma Aldrich, Catalog# F1141) at 30,000 cells/well, following manufacturer’s recommendations. Cells were maintained in culture (37 °C, 5% CO2) for a period of 14 days with iCell Maintenance® media (CDI, Madison, WI, USA) exchanged every 2–3 days. Compound addition was only performed on or after Day 14 following cell seeding.
Compound stock solutions were prepared in 100% DMSO or H2O. On the day of compound addition, the media was exchanged with fresh iCell Maintenance® media and allowed to equilibrate for at least 3 h in the incubator. The plates were read on an xCELLigence® RTCA CardioECR or RTCA Cardio (ACEA Biosciences Inc., San Diego, CA, USA). Control pre-reads to establish a baseline were recorded for at least 45 minutes (4 reads at 15-min intervals) prior to compound addition. The compound stock solutions were diluted into iCell Maintenance® media and quickly added to the plate. The plate was continuously monitored for at least 18 h following compound addition. IMP data were sampled at 12 ms (83 Hz), while FP rate data were collected at 0.1 ms (10 KHz). Attachment, growth and viability of syncytia were monitored by means of the baseline IMP signal, as previously described. IMP and FP signals were only interpreted if the baseline IMP was maintained throughout the measurement period (usually ≤18 hrs) at ≥70% of the value before test compound application (pre-read value).

[3] = biological target: T1, Cav1.2 (Homo sapiens, UniProt Q13936); experiment: Ca2+ influx in Cav1.2/HEK-293 cells (FDSS); type: cell-based; conditions: for IC50: Cav1.2/HEK-293, compound alone
T1 construct: expressed in transfected cells
T1 sequence (Q13936 whole entry): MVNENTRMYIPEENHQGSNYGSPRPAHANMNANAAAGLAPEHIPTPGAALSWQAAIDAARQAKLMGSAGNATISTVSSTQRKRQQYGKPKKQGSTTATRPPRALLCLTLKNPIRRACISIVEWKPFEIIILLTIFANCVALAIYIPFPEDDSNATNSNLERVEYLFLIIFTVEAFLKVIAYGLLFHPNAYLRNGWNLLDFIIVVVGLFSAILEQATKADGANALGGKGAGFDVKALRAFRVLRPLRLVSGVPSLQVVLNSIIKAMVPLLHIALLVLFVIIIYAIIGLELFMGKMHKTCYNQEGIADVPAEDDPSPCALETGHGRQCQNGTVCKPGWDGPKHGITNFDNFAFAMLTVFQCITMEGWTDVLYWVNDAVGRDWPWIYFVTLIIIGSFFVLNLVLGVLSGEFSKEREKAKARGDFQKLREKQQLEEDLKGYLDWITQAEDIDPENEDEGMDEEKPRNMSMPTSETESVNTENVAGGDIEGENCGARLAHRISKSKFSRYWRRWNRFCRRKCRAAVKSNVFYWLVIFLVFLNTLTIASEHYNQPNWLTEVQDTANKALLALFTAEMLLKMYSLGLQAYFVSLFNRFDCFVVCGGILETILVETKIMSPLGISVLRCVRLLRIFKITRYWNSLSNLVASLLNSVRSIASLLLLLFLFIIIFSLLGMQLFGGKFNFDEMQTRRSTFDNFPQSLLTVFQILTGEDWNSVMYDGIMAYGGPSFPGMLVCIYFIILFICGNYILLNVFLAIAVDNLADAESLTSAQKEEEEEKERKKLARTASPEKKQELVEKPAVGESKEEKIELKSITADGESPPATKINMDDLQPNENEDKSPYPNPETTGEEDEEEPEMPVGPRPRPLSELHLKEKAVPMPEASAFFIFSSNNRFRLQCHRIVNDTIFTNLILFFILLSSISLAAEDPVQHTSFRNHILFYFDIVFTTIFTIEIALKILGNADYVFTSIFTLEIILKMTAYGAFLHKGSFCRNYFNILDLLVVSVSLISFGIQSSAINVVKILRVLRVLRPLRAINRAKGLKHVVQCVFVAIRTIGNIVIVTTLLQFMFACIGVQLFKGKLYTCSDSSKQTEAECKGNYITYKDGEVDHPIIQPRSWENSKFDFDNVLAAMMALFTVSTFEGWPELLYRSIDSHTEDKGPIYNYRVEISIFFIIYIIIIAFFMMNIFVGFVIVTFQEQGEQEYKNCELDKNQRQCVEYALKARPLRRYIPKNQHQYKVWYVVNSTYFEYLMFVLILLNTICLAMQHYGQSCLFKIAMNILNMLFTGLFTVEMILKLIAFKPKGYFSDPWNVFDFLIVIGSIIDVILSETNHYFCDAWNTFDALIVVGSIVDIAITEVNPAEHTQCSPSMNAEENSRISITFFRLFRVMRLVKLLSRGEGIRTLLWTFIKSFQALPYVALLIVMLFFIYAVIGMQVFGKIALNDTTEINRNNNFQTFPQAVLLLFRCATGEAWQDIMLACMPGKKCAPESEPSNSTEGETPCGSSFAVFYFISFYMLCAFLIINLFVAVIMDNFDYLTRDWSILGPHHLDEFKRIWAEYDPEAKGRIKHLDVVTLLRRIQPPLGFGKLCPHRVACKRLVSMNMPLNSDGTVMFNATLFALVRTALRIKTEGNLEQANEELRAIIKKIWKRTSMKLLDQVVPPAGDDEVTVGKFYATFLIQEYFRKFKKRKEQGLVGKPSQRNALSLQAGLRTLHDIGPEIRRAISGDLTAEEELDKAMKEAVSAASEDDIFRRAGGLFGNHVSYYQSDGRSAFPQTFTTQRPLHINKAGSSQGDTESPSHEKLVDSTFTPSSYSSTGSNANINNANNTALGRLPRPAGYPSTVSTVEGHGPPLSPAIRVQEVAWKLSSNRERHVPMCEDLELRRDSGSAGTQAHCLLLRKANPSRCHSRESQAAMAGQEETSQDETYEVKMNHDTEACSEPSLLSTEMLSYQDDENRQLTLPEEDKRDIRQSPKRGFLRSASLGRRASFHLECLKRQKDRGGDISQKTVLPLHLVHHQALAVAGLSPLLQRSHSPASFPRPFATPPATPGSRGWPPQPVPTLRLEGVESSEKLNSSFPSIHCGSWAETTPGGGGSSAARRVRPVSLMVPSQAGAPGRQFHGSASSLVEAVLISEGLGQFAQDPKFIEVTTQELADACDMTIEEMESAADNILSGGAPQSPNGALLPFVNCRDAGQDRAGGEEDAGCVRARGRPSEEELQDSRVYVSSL
T1 sequence (Q08289 whole entry partner): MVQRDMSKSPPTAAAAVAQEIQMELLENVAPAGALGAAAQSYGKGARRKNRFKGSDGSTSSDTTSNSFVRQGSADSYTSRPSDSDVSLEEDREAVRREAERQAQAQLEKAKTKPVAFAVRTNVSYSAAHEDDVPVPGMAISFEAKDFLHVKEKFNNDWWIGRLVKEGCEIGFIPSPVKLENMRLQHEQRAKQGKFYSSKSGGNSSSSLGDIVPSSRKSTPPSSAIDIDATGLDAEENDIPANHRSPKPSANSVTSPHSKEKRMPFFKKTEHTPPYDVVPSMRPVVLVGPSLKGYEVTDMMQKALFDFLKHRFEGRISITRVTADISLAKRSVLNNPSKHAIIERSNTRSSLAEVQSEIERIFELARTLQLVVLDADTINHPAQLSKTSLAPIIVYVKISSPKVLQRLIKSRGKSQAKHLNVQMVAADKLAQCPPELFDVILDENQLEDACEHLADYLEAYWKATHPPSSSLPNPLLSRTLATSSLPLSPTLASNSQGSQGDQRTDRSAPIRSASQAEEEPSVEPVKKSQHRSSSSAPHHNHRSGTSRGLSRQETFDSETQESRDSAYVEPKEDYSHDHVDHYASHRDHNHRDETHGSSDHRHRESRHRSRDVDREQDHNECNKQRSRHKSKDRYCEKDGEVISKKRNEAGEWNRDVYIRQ
T1 sequence (P54289 25-946 partner limits assumed): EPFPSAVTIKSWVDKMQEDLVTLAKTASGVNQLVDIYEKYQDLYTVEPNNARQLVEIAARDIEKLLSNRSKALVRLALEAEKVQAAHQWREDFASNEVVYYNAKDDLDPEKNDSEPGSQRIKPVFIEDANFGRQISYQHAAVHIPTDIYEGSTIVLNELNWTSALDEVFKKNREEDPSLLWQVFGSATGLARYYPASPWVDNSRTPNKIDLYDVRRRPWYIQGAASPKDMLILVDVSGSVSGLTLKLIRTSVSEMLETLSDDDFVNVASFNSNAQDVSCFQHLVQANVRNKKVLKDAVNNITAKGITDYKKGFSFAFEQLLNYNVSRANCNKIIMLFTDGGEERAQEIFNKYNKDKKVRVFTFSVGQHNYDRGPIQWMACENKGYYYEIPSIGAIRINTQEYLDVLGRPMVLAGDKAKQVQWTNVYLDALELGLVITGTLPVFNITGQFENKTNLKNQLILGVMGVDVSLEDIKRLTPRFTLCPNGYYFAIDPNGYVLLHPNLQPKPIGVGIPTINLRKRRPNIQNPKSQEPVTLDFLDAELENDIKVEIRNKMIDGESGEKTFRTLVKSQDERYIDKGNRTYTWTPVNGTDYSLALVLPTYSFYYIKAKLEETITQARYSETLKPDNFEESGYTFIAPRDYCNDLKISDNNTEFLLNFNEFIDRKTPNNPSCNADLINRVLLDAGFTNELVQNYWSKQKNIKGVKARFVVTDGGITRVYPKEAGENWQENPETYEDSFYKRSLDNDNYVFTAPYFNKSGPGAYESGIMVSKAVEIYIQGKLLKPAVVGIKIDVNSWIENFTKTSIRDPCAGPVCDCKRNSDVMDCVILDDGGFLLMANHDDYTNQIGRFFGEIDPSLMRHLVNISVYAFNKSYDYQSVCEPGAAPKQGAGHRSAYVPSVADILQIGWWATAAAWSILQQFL
T1 sequence (P54289 947-1103 partner limits assumed): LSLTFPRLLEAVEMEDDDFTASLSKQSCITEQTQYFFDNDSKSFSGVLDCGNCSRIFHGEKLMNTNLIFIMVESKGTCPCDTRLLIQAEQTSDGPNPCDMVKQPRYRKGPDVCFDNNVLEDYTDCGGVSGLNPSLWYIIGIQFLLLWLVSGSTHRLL
Description: The HEK-293 cell line overexpressing Cav1.2 channel proteins was maintained in-house. HEK-293 cells transiently overexpressing Cav1.3 channel proteins were purchased from ChanTest (Charles River Laboratories, Cleveland, OH, USA). The assay was conducted as previously described. Briefly, on experiment day, cells were incubated with Codex ACTOne® dye (Codex Biosolutions, Inc., Gaithersburg, MD, USA) formulated in PPB buffer containing 25 mM potassium (in mM: 127 NaCl, 25 KCl 0.005 CaCl2, 1.7 MgCl2, 10 HEPES, pH = 7.2 with NaOH), or PPB buffer containing 1 mM potassium (in mM: 151 NaCl, 1 KCl 0.005 CaCl2, 1.7 MgCl2, 10 HEPES, pH = 7.2 with NaOH) for 1 h at room temperature, then test compounds were added for another 30-minute incubation at room temperature with a final volume of 100 μL. The Hamamatsu FDSS/μCell imaging platform simultaneously collected Ca^2+ signals from 96-well plates, at a sampling rate of 16 Hz for 20 seconds as baseline, then a trigger buffer (containing in mM: 119 NaCl, 25 KCl, 4 CaCl2, 1.7 MgCl2, 10 HEPES, pH = 7.2 with NaOH) was added using the dispenser of the FDSS/μCell instrument to generate Ca^2+ transient for 40 seconds. The peak amplitude within the latter 40 seconds minus the average amplitude of the first 20 seconds is the final Ca^2+ transient response of each well. […] Relative response of each well was calculated as follows: […]

[4] = hiPSC-CMs, 10 μM prodrug alone, 4 Hours
[5] = hiPSC-CMs, 10 μM prodrug alone, 30 Min
[6] = hiPSC-CMs, 10 μM prodrug + 0.3 μM amiodarone, 4 Hours
[7] = hiPSC-CMs, 10 μM prodrug + 0.3 μM amiodarone, 30 Min
[8] = read-out: IC50, Ca2+ influx inhibition

| Intracellular Concentration, Cleavage Intermediate Metabolite [1, 4] | Intracellular Concentration, Cleavage Intermediate Metabolite [1, 5] | Reduction of cleavage intermediate metabolite level compared to sofosbuvir ([1]; hiPSC-CMs, after 4-h incubation) | Structure (SMILES) | Intracellular Concentration, Prodrug [1, 4] | Intracellular Concentration, NTP Metabolite [1, 4] | Intracellular Concentration, Prodrug [1, 5] | Intracellular Concentration, NTP Metabolite [1, 5] | Effect on FP rate [2] | Effect on IMP amplitude [2] | Intracellular Concentration, Prodrug [1, 6] | Intracellular Concentration, Cleavage Intermediate Metabolite [1, 6] | Intracellular Concentration, NTP Metabolite [1, 6] | Intracellular Concentration, Prodrug [1, 7] | Intracellular Concentration, Cleavage Intermediate Metabolite [1, 7] | Intracellular Concentration, NTP Metabolite [1, 7] | IC50 ([3]; n = 3 for each test, read-out: IC50 in repeat tests) | IC50 [3, 8] | inhibition at 30 min, 150 µM ([3]; HEK-293 cells overexpressing Cav1.2 channel proteins, pH 7.2, Cav1.2/HEK-293, 150 μM, compound alone, read-out: inhibition at maximal tested concentration) | Effect of CatA inhibitor on L-ala,SP prodrug + amiodarone effects (FP rate, IMP amplitude) ([2]; 30 min pre-incubation and continued incubation, Ebel 3 or 10 μM with sofosbuvir or MNI-1, SAR164653 30 μM with 1 μM MNI-1, 0.3 μM amiodarone) | Effect of CatA inhibitor on sofosbuvir cleavage intermediate metabolite in hiPSC-CMs [1] |
| --- | --- | --- | --- | --- | --- | --- | --- | --- | --- | --- | --- | --- | --- | --- | --- | --- | --- | --- | --- | --- |
| B LOQ | B LOQ | – | CC(C)OC(=O)C(C)NP(=O)(OCC1OC(n2ccc(=O)[nH]c2=O)C(C)(F)C1O)Oc1ccccc1 (stereo not shown) [MNI-6] | 65.5 ± 5.8 pmol/million cells | B LOQ | 46.6 ± 3.1 pmol/million cells | B LOQ | – | – | – | – | – | – | – | – | – | – | – | – | – |
| – | – | – | C#C[C@]1(C)[C@@H](O)[C@@H](COP(=O)(N[C@@H](C)C(=O)OC(C)C)Oc2ccccc2)O[C@H]1n1ccc(=O)[nH]c1=O (stereo partly drawn) [MNI-1, isopropyl (2S)-2-[[[(2R,3R,4R,5R)-5-(2,4-dioxopyrimidin-1-yl)-4-ethynyl-3-hydroxy-4-methyl-tetrahydrofuran-2-yl]methoxy-phenoxy-phosphoryl]amino]propanoate] | 69.1 ± 6.8 pmol/million cells | Detected but BLOQ | 75.4 ± 2.3 pmol/million cells | BLOQ | Concentration-dependent, steady-state effects | Concentration-dependent, steady-state effects | 70.5 ± 14.4 pmol/million cells | – | Detected but BLOQ | 69.9 ± 5.3 pmol/million cells | – | BLOQ | – | > 150 µM | 21% | – | – |
| – | – | – | CC(C)OC(=O)[C@H](C)NP(=O)(OC[C@H]1O[C@@H](n2ccc(=O)[nH]c2=O)[C@](C)(Cl)[C@@H]1O)Oc1ccccc1 (stereo partly drawn) [MNI-3, isopropyl (2S)-2-[[[(2R,3R,4R,5R)-4-chloro-5-(2,4-dioxopyrimidin-1-yl)-3-hydroxy-4-methyl-tetrahydrofuran-2-yl]methoxy-phenoxy-phosphoryl]amino]propanoate] | 106.9 ± 10.1 pmol/million cells | – | 97.3 ± 14.0 pmol/million cells | BLOQ | Concentration-dependent, steady-state effects | Concentration-dependent, steady-state effects | 94.0 ± 6.0 pmol/million cells | – | – | 89.8 ± 12.5 pmol/million cells | – | BLOQ | – | – | – | – | – |
| 121.0 ± 6.24 pmol/million cells | B LOQ | ~ 80% | CC(C)OC(=O)C(C)NP(=O)(OCC1OC(n2ccc(=O)[nH]c2=O)C(C)(F)C1O)Oc1ccccc1 (stereo not shown) [MNI-5] | 97.1 ± 36.8 pmol/million cells | B LOQ | 53.6 ± 14.2 pmol/million cells | B LOQ | – | – | – | – | – | – | – | – | – | – | – | – | – |
| – | – | – | CC[C@@H](C)[C@@H](O)[C@H](C)C(=O)[C@H](C)/C=C(\C)C[C@H](C)[C@@H]1OC(=O)[C@H]1CC [Ebel, ebelactone B, reference compound] | – | – | – | – | – | – | – | – | – | – | – | – | – | – | – | concentration-dependent exacerbation | transiently inhibited the formation of the sofosbuvir cleavage intermediate metabolite to levels below the limit of quantitation after 30 min incubation |
| – | – | – | COc1cc(C(=O)N[C@@H](CC(=O)O)c2ccccc2C)nn1-c1ccccc1F [SAR164653, reference compound] | – | – | – | – | – | – | – | – | – | – | – | – | – | – | – | – | decreased, with concentration and time dependence |

| Structure (SMILES) | Intracellular Concentration, Cleavage Intermediate Metabolite [1, 4] | Intracellular Concentration, Cleavage Intermediate Metabolite [1, 5] | Reduction of cleavage intermediate metabolite level compared to sofosbuvir ([1]; hiPSC-CMs, after 4-h incubation) | Intracellular Concentration, Prodrug [1, 4] | Intracellular Concentration, NTP Metabolite [1, 4] | Intracellular Concentration, Prodrug [1, 5] | Intracellular Concentration, NTP Metabolite [1, 5] | Effect on FP rate [2] | Effect on IMP amplitude [2] | Intracellular Concentration, Prodrug [1, 6] | Intracellular Concentration, Cleavage Intermediate Metabolite [1, 6] | Intracellular Concentration, NTP Metabolite [1, 6] | Intracellular Concentration, Prodrug [1, 7] | Intracellular Concentration, Cleavage Intermediate Metabolite [1, 7] | Intracellular Concentration, NTP Metabolite [1, 7] | IC50 ([3]; n = 3 for each test, read-out: IC50 in repeat tests) | IC50 [3, 8] | inhibition at 30 min, 150 µM ([3]; HEK-293 cells overexpressing Cav1.2 channel proteins, pH 7.2, Cav1.2/HEK-293, 150 μM, compound alone, read-out: inhibition at maximal tested concentration) | Effect of CatA inhibitor on L-ala,SP prodrug + amiodarone effects (FP rate, IMP amplitude) ([2]; 30 min pre-incubation and continued incubation, Ebel 3 or 10 μM with sofosbuvir or MNI-1, SAR164653 30 μM with 1 μM MNI-1, 0.3 μM amiodarone) | Effect of CatA inhibitor on sofosbuvir cleavage intermediate metabolite in hiPSC-CMs [1] |
| --- | --- | --- | --- | --- | --- | --- | --- | --- | --- | --- | --- | --- | --- | --- | --- | --- | --- | --- | --- | --- |
| C#C[C@]1(C)[C@@H](O)[C@@H](COP(=O)(N[C@H](C)C(=O)OC(C)C)Oc2ccccc2)O[C@H]1n1ccc(=O)[nH]c1=O (stereo partly drawn) [MNI-4, isopropyl (2R)-2-[[[(2R,3R,4R,5R)-5-(2,4-dioxopyrimidin-1-yl)-4-ethynyl-3-hydroxy-4-methyl-tetrahydrofuran-2-yl]methoxy-phenoxy-phosphoryl]amino]propanoate] | BLOQ | BLOQ | – | 77.4 ± 6.7 pmol/million cells | BLOQ | 75.4 ± 5.1 pmol/million cells | BLOQ | lack of effects | lack of effects | 78.7 ± 6.4 pmol/million cells | BLOQ | BLOQ | 84.8 ± 12.4 pmol/million cells | BLOQ | BLOQ | 27 to 45 µM | ~36 µM | – | – | – |
